According to ChEMBL document CHEMBL5465560, “Selectivity Literature for EUbOPEN Chemogenomic Library” (2024):

Key:
[1] = target: Sigma non-opioid intracellular receptor 1 (Homo sapiens) (UniProt Q99720); assay: Selectivity interaction (GPCR panel (PDSP screen)) EUB0000311b SIGMAR1; conditions: at 10 µM
[2] = target: Serine/threonine-protein kinase VRK2 (Homo sapiens) (UniProt Q86Y07); assay: Selectivity interaction (KinomeScan (DiscoverX)) EUB0000229b VRK2; conditions: at 10 µM
[3] = target: Gamma-aminobutyric acid type B receptor subunit 1 (Homo sapiens) (UniProt Q9UBS5); assay: Selectivity interaction (Eurofins CEREP Diversity Profile (receptors and ion channels)) EUB0000279b GABBR1; conditions: at 10 µM
[4] = target: Calcium/calmodulin-dependent protein kinase type II subunit delta (Homo sapiens) (UniProt Q13557); assay: Selectivity interaction (KinomeScan (DiscoverX)) EUB0001079a CAMK2D; conditions: at 1 µM
[5] = target: Tyrosine-protein kinase JAK1 (Homo sapiens, UniProt P23458); assay: Selectivity interaction (ActivX KiNativ screen (kinase selectivity in THP-1 cell lysates)) EUB0000639a JAK1; type: subcellular; conditions: lysate, at 1 µM
[6] = target: T1, Serine/threonine-protein kinase Sgk2 (Homo sapiens) (UniProt Q9HBY8); assay: Selectivity interaction (Ambit KINOMEscan and KiNATiv profiling in Jurkat cells) EUB0000090b SGK2; type: cell-based; conditions: at 1 µM
T1 sequence (whole entry): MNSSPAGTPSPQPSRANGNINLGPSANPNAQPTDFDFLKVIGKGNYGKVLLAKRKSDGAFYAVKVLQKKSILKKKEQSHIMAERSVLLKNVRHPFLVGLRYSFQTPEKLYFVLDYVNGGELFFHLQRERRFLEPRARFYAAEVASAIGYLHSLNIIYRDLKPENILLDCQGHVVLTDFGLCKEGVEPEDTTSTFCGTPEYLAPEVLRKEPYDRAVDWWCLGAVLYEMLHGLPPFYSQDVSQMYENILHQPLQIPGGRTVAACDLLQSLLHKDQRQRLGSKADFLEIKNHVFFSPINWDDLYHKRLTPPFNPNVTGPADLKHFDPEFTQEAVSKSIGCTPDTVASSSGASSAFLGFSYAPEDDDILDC

[7] = target: Ribosomal protein S6 kinase alpha-6 (Homo sapiens, UniProt Q9UK32); assay: Selectivity interaction (KinomeScan (DiscoverX)) EUB0001619a RPS6KA6; conditions: at 1 µM
[8] = target: T2, Interleukin-1 receptor-associated kinase 3 (Homo sapiens) (UniProt Q9Y616); assay: Selectivity interaction (KinomeScan (DiscoverX)) EUB0000695a IRAK3; conditions: at 100 nM
T2 sequence (whole entry): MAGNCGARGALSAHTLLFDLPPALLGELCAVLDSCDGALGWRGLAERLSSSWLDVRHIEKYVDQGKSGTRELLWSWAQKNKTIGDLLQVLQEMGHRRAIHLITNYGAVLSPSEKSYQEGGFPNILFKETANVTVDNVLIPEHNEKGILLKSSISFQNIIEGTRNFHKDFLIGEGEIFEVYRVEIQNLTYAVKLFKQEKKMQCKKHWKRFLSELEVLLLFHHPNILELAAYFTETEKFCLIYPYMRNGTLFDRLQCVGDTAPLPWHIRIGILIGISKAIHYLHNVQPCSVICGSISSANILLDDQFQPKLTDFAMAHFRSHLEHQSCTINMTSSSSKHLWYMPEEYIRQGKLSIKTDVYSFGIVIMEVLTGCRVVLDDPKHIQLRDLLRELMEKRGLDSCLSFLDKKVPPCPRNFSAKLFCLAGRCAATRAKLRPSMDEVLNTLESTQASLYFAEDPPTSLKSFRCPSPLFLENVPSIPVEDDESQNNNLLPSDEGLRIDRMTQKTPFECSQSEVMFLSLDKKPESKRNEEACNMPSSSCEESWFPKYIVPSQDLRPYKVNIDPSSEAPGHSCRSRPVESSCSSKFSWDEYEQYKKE

[9] = target: MAP kinase-interacting serine/threonine-protein kinase 2 (Homo sapiens, UniProt Q9HBH9); assay: Selectivity interaction (KinomeScan (DiscoverX)) EUB0000607a MKNK2; conditions: at 10 µM
[10] = target: T3, Mitogen-activated protein kinase 15 (Homo sapiens) (UniProt Q8TD08); assay: Selectivity interaction (Rxn Biology Kinase assay) EUB0001632a MAPK15; conditions: at 10 µM
T3 sequence (whole entry): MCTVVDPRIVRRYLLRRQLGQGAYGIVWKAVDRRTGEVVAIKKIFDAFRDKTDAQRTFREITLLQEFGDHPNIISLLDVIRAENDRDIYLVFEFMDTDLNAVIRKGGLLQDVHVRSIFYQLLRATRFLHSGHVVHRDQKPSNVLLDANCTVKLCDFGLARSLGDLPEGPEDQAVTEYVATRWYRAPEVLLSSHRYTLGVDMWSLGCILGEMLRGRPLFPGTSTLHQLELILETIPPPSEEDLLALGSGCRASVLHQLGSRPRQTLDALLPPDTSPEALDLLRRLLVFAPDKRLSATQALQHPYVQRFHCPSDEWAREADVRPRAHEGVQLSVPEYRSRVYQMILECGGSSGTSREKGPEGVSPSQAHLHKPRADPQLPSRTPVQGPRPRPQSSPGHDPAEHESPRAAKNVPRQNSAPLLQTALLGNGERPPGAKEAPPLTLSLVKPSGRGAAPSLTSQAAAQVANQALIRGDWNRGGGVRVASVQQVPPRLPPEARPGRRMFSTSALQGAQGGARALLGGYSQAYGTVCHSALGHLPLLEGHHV

[11] = target: T4, NUAK family SNF1-like kinase 1 (Homo sapiens) (UniProt O60285); assay: Selectivity interaction (Adapta Assay) EUB0001632a NUAK1; conditions: at 10 µM
T4 sequence (whole entry): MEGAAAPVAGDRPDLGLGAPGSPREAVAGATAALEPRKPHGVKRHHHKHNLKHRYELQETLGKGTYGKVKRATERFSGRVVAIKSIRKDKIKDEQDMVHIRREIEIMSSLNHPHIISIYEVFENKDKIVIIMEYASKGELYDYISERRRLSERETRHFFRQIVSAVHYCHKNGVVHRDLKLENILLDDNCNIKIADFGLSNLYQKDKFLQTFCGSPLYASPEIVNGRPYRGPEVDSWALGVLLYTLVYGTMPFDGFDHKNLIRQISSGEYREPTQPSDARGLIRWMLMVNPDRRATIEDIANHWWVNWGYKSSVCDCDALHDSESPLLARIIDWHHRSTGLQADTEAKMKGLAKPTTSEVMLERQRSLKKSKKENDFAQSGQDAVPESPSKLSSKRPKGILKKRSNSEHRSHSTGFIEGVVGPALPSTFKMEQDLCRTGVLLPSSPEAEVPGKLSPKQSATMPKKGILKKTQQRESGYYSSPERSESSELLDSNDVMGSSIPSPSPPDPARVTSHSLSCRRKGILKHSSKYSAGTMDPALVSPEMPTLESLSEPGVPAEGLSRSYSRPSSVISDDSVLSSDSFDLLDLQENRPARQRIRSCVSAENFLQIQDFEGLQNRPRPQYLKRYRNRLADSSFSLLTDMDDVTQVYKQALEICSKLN

[12] = target: Cannabinoid receptor 2 (Homo sapiens) (UniProt P34972); assay: Selectivity interaction (Panel of non-epigenetic targets (kinases, GPCRs, ion channels, and transporters, Eurofins) ) EUB0000271b CNR2; conditions: at 1 µM
Cannabinoid receptor 2 (Homo sapiens), sequence (P34972 whole entry): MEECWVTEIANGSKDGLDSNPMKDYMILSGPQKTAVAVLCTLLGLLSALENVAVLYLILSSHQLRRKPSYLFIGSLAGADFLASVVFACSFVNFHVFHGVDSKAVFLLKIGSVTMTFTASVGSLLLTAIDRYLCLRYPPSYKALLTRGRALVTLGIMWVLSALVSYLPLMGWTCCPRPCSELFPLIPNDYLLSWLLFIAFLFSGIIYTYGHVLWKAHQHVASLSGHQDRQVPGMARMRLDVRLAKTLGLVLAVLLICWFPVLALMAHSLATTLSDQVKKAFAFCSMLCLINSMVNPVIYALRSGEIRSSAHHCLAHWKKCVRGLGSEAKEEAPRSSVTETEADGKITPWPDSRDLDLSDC

Ribosomal protein S6 kinase alpha-6, sequence (Q9UK32 whole entry): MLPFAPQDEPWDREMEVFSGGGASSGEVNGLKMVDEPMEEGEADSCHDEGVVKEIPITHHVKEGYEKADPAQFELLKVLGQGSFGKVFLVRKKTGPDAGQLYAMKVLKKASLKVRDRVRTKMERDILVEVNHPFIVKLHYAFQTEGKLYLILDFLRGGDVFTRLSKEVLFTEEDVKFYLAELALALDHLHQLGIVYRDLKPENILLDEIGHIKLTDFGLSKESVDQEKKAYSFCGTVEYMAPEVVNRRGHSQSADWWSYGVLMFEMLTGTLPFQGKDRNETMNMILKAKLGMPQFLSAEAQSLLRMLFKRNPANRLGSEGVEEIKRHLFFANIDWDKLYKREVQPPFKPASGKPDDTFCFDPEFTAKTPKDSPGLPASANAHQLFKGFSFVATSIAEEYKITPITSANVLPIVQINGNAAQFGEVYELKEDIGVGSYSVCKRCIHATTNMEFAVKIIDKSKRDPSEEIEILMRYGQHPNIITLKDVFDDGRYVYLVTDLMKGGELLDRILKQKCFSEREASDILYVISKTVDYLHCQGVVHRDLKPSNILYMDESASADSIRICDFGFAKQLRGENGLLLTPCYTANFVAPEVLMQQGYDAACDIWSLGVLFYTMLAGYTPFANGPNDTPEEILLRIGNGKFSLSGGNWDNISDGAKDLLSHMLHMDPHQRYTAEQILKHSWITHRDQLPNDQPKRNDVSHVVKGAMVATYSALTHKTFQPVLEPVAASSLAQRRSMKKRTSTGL
Calcium/calmodulin-dependent protein kinase type II subunit delta (Homo sapiens), sequence (Q13557 whole entry): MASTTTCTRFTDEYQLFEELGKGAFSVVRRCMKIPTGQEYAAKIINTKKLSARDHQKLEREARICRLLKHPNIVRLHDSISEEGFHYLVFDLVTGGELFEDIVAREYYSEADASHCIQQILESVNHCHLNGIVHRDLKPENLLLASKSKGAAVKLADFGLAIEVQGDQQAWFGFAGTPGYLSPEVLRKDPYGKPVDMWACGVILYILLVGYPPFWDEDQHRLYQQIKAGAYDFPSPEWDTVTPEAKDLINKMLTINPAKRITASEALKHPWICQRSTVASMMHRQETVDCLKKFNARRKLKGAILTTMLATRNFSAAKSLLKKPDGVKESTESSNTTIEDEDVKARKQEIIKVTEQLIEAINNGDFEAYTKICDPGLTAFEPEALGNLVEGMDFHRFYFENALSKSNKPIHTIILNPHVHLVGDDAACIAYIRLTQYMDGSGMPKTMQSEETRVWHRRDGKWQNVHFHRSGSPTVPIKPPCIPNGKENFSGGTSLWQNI
Sigma non-opioid intracellular receptor 1 (Homo sapiens), sequence (Q99720 whole entry): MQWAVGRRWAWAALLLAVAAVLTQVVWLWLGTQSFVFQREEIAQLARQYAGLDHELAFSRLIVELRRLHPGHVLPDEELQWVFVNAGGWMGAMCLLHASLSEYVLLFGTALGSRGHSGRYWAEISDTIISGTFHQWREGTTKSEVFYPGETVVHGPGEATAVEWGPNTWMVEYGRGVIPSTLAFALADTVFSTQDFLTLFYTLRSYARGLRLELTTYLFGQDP
Serine/threonine-protein kinase VRK2 (Homo sapiens), sequence (Q86Y07 whole entry): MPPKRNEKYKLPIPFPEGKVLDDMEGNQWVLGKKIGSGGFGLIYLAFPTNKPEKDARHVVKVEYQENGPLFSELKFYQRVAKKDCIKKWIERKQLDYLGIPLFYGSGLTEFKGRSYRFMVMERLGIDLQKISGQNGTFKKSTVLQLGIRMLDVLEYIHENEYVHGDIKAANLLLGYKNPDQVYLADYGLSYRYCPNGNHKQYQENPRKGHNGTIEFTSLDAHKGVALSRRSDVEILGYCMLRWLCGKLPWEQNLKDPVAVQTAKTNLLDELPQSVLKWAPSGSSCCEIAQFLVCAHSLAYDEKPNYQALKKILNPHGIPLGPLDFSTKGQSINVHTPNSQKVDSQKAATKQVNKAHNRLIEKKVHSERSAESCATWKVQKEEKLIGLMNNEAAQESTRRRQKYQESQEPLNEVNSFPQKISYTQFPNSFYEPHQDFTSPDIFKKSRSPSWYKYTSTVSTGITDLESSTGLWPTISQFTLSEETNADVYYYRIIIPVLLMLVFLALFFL
Tyrosine-protein kinase JAK1, sequence (P23458 whole entry): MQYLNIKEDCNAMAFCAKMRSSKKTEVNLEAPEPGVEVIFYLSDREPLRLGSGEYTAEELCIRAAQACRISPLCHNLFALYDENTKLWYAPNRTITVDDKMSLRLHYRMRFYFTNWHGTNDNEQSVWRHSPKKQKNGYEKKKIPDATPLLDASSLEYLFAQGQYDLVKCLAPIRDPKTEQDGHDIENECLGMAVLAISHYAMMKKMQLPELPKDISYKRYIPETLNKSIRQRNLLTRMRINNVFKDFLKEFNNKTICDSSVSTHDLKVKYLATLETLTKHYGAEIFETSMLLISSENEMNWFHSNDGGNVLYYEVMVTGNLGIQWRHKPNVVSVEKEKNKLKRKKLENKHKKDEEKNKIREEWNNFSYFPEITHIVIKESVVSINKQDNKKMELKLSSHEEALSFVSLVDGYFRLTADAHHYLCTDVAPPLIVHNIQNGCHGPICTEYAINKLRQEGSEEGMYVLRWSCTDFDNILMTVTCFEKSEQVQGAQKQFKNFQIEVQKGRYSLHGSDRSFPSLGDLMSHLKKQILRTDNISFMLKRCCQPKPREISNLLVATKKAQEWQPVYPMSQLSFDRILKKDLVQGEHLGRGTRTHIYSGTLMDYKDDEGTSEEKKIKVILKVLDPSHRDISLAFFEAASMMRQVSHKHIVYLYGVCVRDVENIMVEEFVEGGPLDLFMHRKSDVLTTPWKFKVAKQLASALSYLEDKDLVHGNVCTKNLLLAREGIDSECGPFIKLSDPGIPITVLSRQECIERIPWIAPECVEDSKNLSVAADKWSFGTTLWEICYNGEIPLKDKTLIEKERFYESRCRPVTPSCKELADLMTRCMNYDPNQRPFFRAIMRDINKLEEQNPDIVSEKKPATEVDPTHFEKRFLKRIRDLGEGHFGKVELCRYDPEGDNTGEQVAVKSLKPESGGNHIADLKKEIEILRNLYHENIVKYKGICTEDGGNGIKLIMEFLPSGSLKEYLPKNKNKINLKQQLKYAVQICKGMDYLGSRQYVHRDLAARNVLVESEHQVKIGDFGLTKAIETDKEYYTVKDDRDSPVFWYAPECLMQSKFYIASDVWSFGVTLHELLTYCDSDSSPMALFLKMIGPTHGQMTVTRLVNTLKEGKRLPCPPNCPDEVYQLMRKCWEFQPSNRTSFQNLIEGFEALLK
MAP kinase-interacting serine/threonine-protein kinase 2, sequence (Q9HBH9 whole entry, looked up): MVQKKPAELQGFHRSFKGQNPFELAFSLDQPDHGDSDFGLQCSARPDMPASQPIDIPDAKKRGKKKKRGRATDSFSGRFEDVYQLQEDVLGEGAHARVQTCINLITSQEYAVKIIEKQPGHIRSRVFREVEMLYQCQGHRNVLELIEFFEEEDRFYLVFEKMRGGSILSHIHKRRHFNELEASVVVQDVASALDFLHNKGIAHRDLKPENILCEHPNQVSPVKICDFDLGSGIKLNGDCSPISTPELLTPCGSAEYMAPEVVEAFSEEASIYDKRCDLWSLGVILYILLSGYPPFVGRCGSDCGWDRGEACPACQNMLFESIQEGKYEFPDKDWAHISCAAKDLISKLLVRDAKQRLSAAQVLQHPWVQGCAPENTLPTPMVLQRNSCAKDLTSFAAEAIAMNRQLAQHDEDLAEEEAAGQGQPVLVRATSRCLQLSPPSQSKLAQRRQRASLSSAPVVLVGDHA
Gamma-aminobutyric acid type B receptor subunit 1 (Homo sapiens), sequence (Q9UBS5 whole entry): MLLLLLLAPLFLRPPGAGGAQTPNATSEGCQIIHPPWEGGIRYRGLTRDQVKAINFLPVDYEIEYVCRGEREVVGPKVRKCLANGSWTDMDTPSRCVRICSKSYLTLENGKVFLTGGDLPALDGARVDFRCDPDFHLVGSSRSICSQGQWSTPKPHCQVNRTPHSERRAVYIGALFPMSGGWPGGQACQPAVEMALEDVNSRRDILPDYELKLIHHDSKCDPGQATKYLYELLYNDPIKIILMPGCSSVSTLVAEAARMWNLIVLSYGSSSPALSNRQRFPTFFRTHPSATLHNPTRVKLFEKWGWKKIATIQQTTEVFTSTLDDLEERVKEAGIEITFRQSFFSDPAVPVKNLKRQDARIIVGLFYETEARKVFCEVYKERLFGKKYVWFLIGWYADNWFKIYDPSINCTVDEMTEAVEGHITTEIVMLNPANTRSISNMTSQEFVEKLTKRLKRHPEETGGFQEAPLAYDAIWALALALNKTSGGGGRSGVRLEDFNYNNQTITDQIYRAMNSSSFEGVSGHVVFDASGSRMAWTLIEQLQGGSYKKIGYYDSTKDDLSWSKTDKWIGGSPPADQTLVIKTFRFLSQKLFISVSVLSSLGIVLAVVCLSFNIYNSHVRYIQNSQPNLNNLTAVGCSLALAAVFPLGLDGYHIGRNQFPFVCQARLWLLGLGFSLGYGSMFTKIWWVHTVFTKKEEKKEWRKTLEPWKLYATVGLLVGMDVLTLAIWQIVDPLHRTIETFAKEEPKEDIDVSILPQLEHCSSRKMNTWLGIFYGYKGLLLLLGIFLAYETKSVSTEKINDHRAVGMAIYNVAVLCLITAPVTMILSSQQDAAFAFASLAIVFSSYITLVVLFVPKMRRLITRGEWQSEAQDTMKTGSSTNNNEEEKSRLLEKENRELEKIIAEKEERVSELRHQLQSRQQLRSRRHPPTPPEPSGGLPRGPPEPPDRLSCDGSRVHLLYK

For CCc1ccccc1C(=O)Nc1n[nH]c2c(C)c(F)c(C3C(C#N)=C(C)N(C)C(C)=C3C#N)cc12 [BAY-3827], the % of inhibition [1] was 30.5%.
COc1cc(N(C)c2ccnc3ccc(C(F)(F)F)cc23)cc(OC)c1OC was tested, and the % binding [2] was 85%.
For CC(=O)c1cc(-c2ccccc2OCC2CC2)c2ncccn12, the % of control [3] was 100%.
With Nc1cnc(N2CCc3cc(S(=O)(=O)Nc4c(F)cc(Cl)cc4F)cc(N4CCCC4=O)c32)nc1 [TP-020n] the % of control [4] was 100%.
With CC[C@@H]1[C@H](F)C(=O)N[C@@H]1COc1nccc2cc(C(N)=O)c(OC)cc12 [ZIMLOVISERTIB] the % of inhibition [5] was 3.8%.
CN(C)C/C=C/C(=O)Nc1ccc(C(=O)N2CCCC(Nc3ncc(Cl)c(-c4c[nH]c5ccccc45)n3)C2)cc1 (configuration not stated) was tested, and the % of control [6] was 100%.
In the case of N#Cc1cccc(-c2c[nH]c3ncnc(N4CCOCC4)c23)c1, the % of control [7] is reported as 29%.
In the case of Cc1cc(F)c(C(=O)Nc2cccc(-c3nncn3C(C)C)n2)cc1-n1cnc(C2CC2)c1, the % of control [8] is reported as 100%.
CNC(=O)Nc1ccc(-c2nc(N3CC4CCC(C3)O4)c3cnn(C4CCC5(CC4)OCCO5)c3n2)cc1 showed a % of control [9] of 87%.
For Cn1cc(-n2cnc3c(NCc4nc5cc(Cl)c(Cl)cc5[nH]4)nc(N4CCOCC4)nc32)cn1, the % of inhibition [10] was -25.6% and the % of inhibition [11] was 15.2%.
In the case of Cc1cc(C)cc([C@@H]2c3cc(C)ccc3NC(=O)CN2C(=O)c2ccc(Br)s2)c1, the % of inhibition [12] is reported as -19%.
